Results as given in publication PMC9114338 (Scientific Reports, 2022).
Where two headings read alike, the source gives them in different places.

Legend:
[1] = Simulation of plasma TFV and PBMC TFV-DP following TAF delivery from implants; design: species or system C57BL/6 J mice; settings: dose-dependent
Experimental: All other parameters were unmodified from Table 2. Our starting hypothesis was that the difference between SQ injection and long-acting SQ delivery via implant would be strictly related to the implant release rate. Once the drug was released from the device, it was hypothesized to be transferred from the SQ pocket to body circulation via the same mechanism and governed by the same parameters as by SQ injection, and therefore the same model was employed.
Compartmental analyses were performed in Phoenix software (version 8.3, Certara, Princeton, NJ) using a published, simple, structural PK model describing the TFV kinetics. IV and SQ data were modeled simultaneously. Due to the destructive nature of the blood sampling, data were modeled using a naïve-pooled algorithm, without inter-animal variability. The resulting systemic parameters, along with the implant in vivo release rates on a per animal basis, were used to co-model (predict) concentration data in mice following during implant dosing.

[2] = test system: OAT1; settings: in vitro studies; cited from earlier work
[3] = MALDI imaging mass spectrometry of dermal tissues adjacent to the implant; format: in vivo, C57BL/6 J mice
Experimental: The used implants, the surrounding capsule, and the encasing dermal tissue were removed as a block in accordance with ISO 10993-6 guidelines, processed and stored, as described elsewhere. Briefly, the capsule was cut longitudinally and rolled open, taking care not to disrupt the architecture of the tissue or to damage the used implant. A portion of the tissue specimen was placed into 4% paraformaldehyde solution (phosphate-buffered at pH 7.2), and stored at 4 °C, for histopathology and two other portions were flash-frozen in liquid nitrogen for drug concentration analysis as well as for drug spatial distribution analysis by MALDI-IMS (vide infra).
Frozen mouse tissue specimens were shipped to Vanderbilt University on dry ice and stored at − 80 °C prior to use. Tissues were removed from the − 80 °C freezer and placed in a − 20 °C cryostat (CM 1900, Leica Biosystems, Buffalo Grove, IL) and sectioned. Tissue samples that had been prepared via removal of the used implant were affixed to the cryostat chuck with optimal cutting temperature (OCT) polymer and were cut on the cryostat into 12 µm thick sections for imaging mass spectrometry and H&E staining.
Tissue samples that still contained the implant in place were embedded in OCT prior to sectioning. In order to minimize the artifactual signal from the TAF powder after sectioning (the act of the cryostat blade cutting through an intact implant distributed residual TAF powder that still remained in the used implant onto the surrounding tissue section), house vacuum was used to remove visible TAF powder, followed by lightly running nitrogen gas over the plate to remove any additional loose powder from the slide.
The tissue sections were thaw-mounted onto indium-tin oxide coated glass slides for imaging (Delta Technologies, Ltd, Loveland, CO). The tissue sections were left to dry for at least 15 min in a desktop vacuum desiccator prior to matrix application. […] For 9AA, four passes were applied at 85 °C in a crisscross pattern, with a 700 mm min^-1 stage velocity, 2 mm track spacing, and 0.15 mL min^-1 flow rate. For DHB the same method was used, except eight passes were applied and the stage velocity was 1300 mm min^-1.
Flash-frozen dermal tissue samples collected adjacent to the TAF implants and sectioned were analyzed with a linear ion trap mass spectrometer equipped with a MALDI source and a nitrogen laser (LTQ XL, Thermo Scientific, Waltham, MA). The structures of compounds of interest are shown in Scheme 1. Targeted MS/MS methods were optimized for each compound using authentic samples as standards, with the final parameters shown in Appendix A under Supplementary Information. Pseudo-selected reaction monitoring mode was used for imaging by isolating precursor ions with a 1 Da window, fragmenting them, and acquiring full product ion mass spectra at each pixel. TFV, TFV-MP, and TFV-DP were analyzed in negative ion mode, while TAF, Metabolite X, and Metabolite Y were analyzed in positive ion mode. In most cases, after imaging, the matrix was removed and the tissue section that had been imaged was H&E stained for better image registration with tissue morphology. Standard images were acquired at either 50 or 100 µm spatial resolution. Reconstructed ion images were generated in ImageQuest software (Thermo Scientific, Waltham, MA) by plotting the intensity of the diagnostic fragment ion or ions as a function of location across the tissue surface.

[4] = rapidly converts to TFV; cited from earlier work
[5] = cited from earlier work
[6] = test system: OAT3; settings: in vitro studies; cited from earlier work
[7] = test system: HIV-1
Experimental: The BLT hu-mouse model has been used extensively in efficacy studies involving HIV-1 prevention research[54]–[58]. […] The mice were challenged with HIV-1 either rectally or vaginally 6 h post dosing and monitored for infection status for 12 weeks.
The generation of BLT hu-mice was performed as described in Baum et al.[58], and the references contained therein.
Vaginal or rectal challenge with HIV-1 was performed 6 h after dosing and HIV-1 infection status was monitored by quantifying viral RNA concentration in peripheral blood (plasma) at 1, 2, 3, 6, and 12 weeks post challenge as fully described in Baum et al.[58], and the references contained therein.

[8] = format: in vivo, C57BL/6 J mice; settings: Day 28, pathologist evaluation, low and high doses
Experimental: Toxicity was evaluated by clinical observations, cage-side observations (twice daily), and body weight (weekly). Formaldehyde-fixed dermal tissue specimens (one per animal) were paraffin-embedded, sectioned, and H&E stained using established methods (JIT Labs, jit-labs.com). The slides were evaluated for microscopic findings by a certified pathologist (Vet Path Services, Inc., Mason, OH). Histopathology grades were assigned as grade 1 (minimal), grade 2 (mild), grade 3 (moderate), grade 4 (marked), or grade 5 (severe) based on an increasing extent of overall change.

[9] = oral TAF 6 h before rectal HIV-1 challenge
[10] = oral TAF 6 h before vaginal HIV-1 challenge

CC(C)OC(=O)[C@H](C)N[P@](=O)(CO[C@H](C)Cn1cnc2c(N)ncnc21)Oc1ccccc1 [TAF, tenofovir alafenamide]
Impurities formed during in vivo implant use (HPLC of retrieved implants): less than 1%
TAF peak area of total peak area (TAF and decomposition products) in retrieved implants (HPLC, irrespective of the implant group): > 98%
Exposure scaling (apparent bioavailability) from subdermal implants vs SQ or IV injection [1]: 4–5 ×
Substrate for renal uptake transporter OAT1 [2]: not believed to be a substrate
Detection by MALDI-IMS in dermal tissue samples during implant TAF delivery ([3]; all medicated specimens): detected
Spatial distribution in dermal tissue sections (MALDI-IMS) ([3]; high-releasing (0.58 mg d^-1) implants, D3–D28): localized close to the implant
MALDI-IMS signal and localization with implant in situ ([3]; low-releasing (0.23 mg d^-1) implants, Day 14, 100 µm resolution): most abundant signals
Stability in mouse plasma [4]: highly unstable
Efflux transport in the intestine [5]: vulnerable to efflux transport
Substrate for renal uptake transporter OAT3 [6]: not believed to be a substrate
Protection from rectal HIV-1 acquisition ([7]; oral TAF): fully protective
Protection from vaginal HIV-1 acquisition ([7]; oral TAF): fully protective
ED50 [7, 9]: 1.27 µmol
ED90 [7, 9]: 1.62 µmol
ED50 [7, 10]: 1.17 µmol
ED90 [7, 10]: 2.15 µmol
m-value ± SEM (median-effect model) ([7]; rectal): 9.18 ± 1.94
m-value ± SEM (median-effect model) ([7]; vaginal): 3.60 ± 0.22
Effect of TAF dose on microscopic appearance of tissues [8]: no effects
